Assay results as given in PubChem BioAssay (NCI).
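Exposure lasted 48 hours, with cells grown in 96-well plates and compounds tested at five concentrations. The concentration for 50% growth inhibition is given as GI50. TGI is the concentration that stops growth completely.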

Tests used:
Test in all cases: NCI anticancer screen, dose series, 48 h
[1] = system: A498 renal
[2] = system: HCT-15 colon
[3] = system: NCI-H23 lung
[4] = system: MCF7 breast
[5] = system: U251 CNS
[6] = system: NCI-H522 lung
[7] = system: SK-MEL-5 melanoma
[8] = system: SW-620 colon
[9] = system: EKVX NSCLC
[10] = system: TK-10 renal

`CN(C)c1ccc2c(c1)OC(N)=C(C#N)C2c1ccc2c(c1)CCCN2C` (centres undefined) was tested, and the GI50 [1] was 0.228 µM, the TGI [1] was 4.07 µM and the GI50 [2] was 0.789 µM. For the same molecule, the TGI [2] was over 100 µM, the GI50 [3] was 2.83 µM and the TGI [3] was 92.1 µM. For the same molecule, the GI50 [4] was 0.444 µM, the TGI [4] was 33.4 µM and the GI50 [5] was 2.6 µM. It also gave a TGI [5] of 21.9 µM, a GI50 [6] of 0.274 µM and a TGI [6] of 1.47 µM. For the same molecule, the GI50 [7] was 0.733 µM, the TGI [7] was 12.8 µM and the GI50 [8] was 0.938 µM. The TGI [8] was over 100 µM, the GI50 [9] was 3.79 µM and the TGI [9] was over 100 µM. It also gave a GI50 [10] of 10.2 µM and a TGI [10] of 91.7 µM.

Work on `O=C(O)Cn1ccc(=O)c2c([N+](=O)[O-])cccc21` yielded a TGI [1] of over 100 µM, a TGI [2] of over 100 µM and a TGI [3] of over 100 µM. The TGI [4] was over 100 µM, the TGI [5] was over 100 µM and the TGI [6] was over 100 µM. It also gave a TGI [7] of over 100 µM, a TGI [8] of over 100 µM and a TGI [10] of over 100 µM.

Work on `Oc1ccc(-c2[nH]c3ccccc3c2-c2nc3ccccc3o2)cc1` yielded a GI50 [1] of 2.18 µM, a TGI [1] of 14.9 µM and a GI50 [2] of 2.97 µM. For the same molecule, the TGI [2] was 13.1 µM, the GI50 [3] was 2.26 µM and the TGI [3] was 9.88 µM. It also gave a GI50 [4] of 2.83 µM, a TGI [4] of 10.5 µM and a GI50 [5] of 2.86 µM. The TGI [5] was 11.6 µM, the GI50 [6] was 2.83 µM and the TGI [6] was 9.65 µM. It also gave a GI50 [7] of 2.16 µM, a TGI [7] of 7.8 µM and a GI50 [8] of 3.04 µM. It also gave a TGI [8] of 13.4 µM, a GI50 [9] of 4.76 µM and a TGI [9] of 21.9 µM. For the same molecule, the GI50 [10] was 5.49 µM and the TGI [10] was 16.8 µM.

Work on `OC1CSCCSCCCSCCSC1` yielded a TGI [1] of over 100 µM, a TGI [2] of over 100 µM and a TGI [3] of over 100 µM. The TGI [4] was over 100 µM, the TGI [5] was over 100 µM and the TGI [6] was over 100 µM. It also gave a TGI [7] of over 100 µM, a TGI [8] of over 100 µM and a TGI [9] of over 100 µM. For the same molecule, the TGI [10] was over 100 µM.

With `NCC(Cc1ccccc1)P(=O)(O)O` (centres undefined) the TGI [1] was over 100 µM, the TGI [2] was over 100 µM and the TGI [3] was over 100 µM. For the same molecule, the TGI [4] was over 100 µM, the TGI [5] was over 100 µM and the TGI [6] was over 100 µM. For the same molecule, the TGI [7] was over 100 µM, the TGI [8] was over 100 µM and the TGI [9] was over 100 µM. For the same molecule, the TGI [10] was over 100 µM.

Work on `O=C1C2C(C(=O)N1CC[Se][Se]CCN1C(=O)C3C(C1=O)[C@H]1C=C[C@@H]3C1)[C@H]1C=C[C@@H]2C1` (some centres undefined) yielded a GI50 [1] of 0.686 µM, a TGI [1] of 2.26 µM and a GI50 [2] of 0.441 µM. The TGI [2] was 2.33 µM, the GI50 [3] was 0.802 µM and the TGI [3] was 4.48 µM. For the same molecule, the GI50 [4] was 0.332 µM, the TGI [4] was 4.01 µM and the GI50 [5] was 0.597 µM. The TGI [5] was 3.04 µM, the GI50 [6] was 1.79 µM and the TGI [6] was 4.44 µM. For the same molecule, the GI50 [7] was 1.67 µM, the TGI [7] was 3.7 µM and the GI50 [8] was 2.62 µM. The TGI [8] was 7.59 µM, the GI50 [9] was 0.274 µM and the TGI [9] was 0.969 µM. For the same molecule, the GI50 [10] was 0.303 µM and the TGI [10] was 0.994 µM.

`CCN(CCNc1ccc(C)c2sc3cc(Cl)ccc3c(=O)c12)CC(C)(C)O` was tested, and the GI50 [1] was 3.47 µM, the TGI [1] was 14.9 µM and the GI50 [2] was 3.3 µM. For the same molecule, the TGI [2] was 12 µM, the GI50 [3] was 6.88 µM and the TGI [3] was 24.1 µM. The GI50 [4] was 11.7 µM, the TGI [4] was 26.9 µM and the GI50 [5] was 4.51 µM. It also gave a TGI [5] of 18.5 µM, a GI50 [6] of 3.82 µM and a TGI [6] of 20 µM. It also gave a GI50 [7] of 1.83 µM, a TGI [7] of 3.49 µM and a GI50 [8] of 3.64 µM. It also gave a TGI [8] of 13.4 µM, a GI50 [9] of 3.41 µM and a TGI [9] of 21.6 µM. For the same molecule, the GI50 [10] was 3.59 µM and the TGI [10] was 13.9 µM.

`O=S(=O)(NCCCNc1nccc(-c2c(-c3cccc(F)c3)nc3occn23)n1)c1cccc2ccccc12` was tested, and the GI50 [1] was 8.36 µM, the TGI [1] was over 100 µM and the GI50 [2] was 3.31 µM. The TGI [2] was over 100 µM, the GI50 [3] was 14.8 µM and the TGI [3] was over 100 µM. For the same molecule, the GI50 [4] was 4.07 µM, the TGI [4] was over 100 µM and the GI50 [5] was 8.89 µM. For the same molecule, the TGI [5] was over 100 µM, the GI50 [6] was 9.17 µM and the TGI [6] was over 100 µM. It also gave a GI50 [7] of 3.67 µM, a TGI [7] of 43.6 µM and a GI50 [8] of 6.91 µM. It also gave a TGI [8] of over 100 µM, a GI50 [9] of 6.04 µM and a TGI [9] of over 100 µM. The GI50 [10] was 11 µM and the TGI [10] was over 100 µM.

Work on `CCN(CC)Cc1cc(Nc2cc(C(F)(F)F)c(C#N)c3nc4ccccc4n23)ccc1O` yielded a GI50 [1] of 1.44 µM, a TGI [1] of 5.85 µM and a GI50 [2] of 0.78 µM. It also gave a TGI [2] of 2.76 µM, a GI50 [3] of 1.21 µM and a TGI [3] of 8.29 µM. The GI50 [4] was 1.75 µM, the TGI [4] was 10.7 µM and the GI50 [5] was 1.5 µM. For the same molecule, the TGI [5] was 6.47 µM, the GI50 [6] was 1.05 µM and the TGI [6] was 2.74 µM. The GI50 [7] was 0.271 µM, the TGI [7] was 1.66 µM and the GI50 [8] was 2.61 µM. For the same molecule, the TGI [8] was 10.2 µM, the GI50 [9] was 0.526 µM and the TGI [9] was 8.39 µM. It also gave a GI50 [10] of 1.47 µM and a TGI [10] of 9.43 µM.

Molecule `O=C(Nc1nc2c(s1)CCc1c-2c(Br)n(Cc2ccccc2)c1Br)c1ccccc1` has a GI50 [1] of 4.7 µM, a TGI [1] of 28.9 µM and a GI50 [2] of 12.4 µM. For the same molecule, the TGI [2] was over 100 µM, the GI50 [3] was 8.03 µM and the TGI [3] was over 100 µM. For the same molecule, the GI50 [4] was 5.38 µM, the TGI [4] was over 100 µM and the GI50 [5] was 3.42 µM. It also gave a TGI [5] of 11.3 µM, a GI50 [6] of 4.41 µM and a TGI [6] of 32.5 µM. It also gave a GI50 [7] of 2.17 µM, a TGI [7] of 11.6 µM and a GI50 [8] of 21.4 µM. The TGI [8] was over 100 µM, the GI50 [10] was 2.98 µM and the TGI [10] was 7.85 µM.

`CCOC(=O)C1=C(C)N(Cc2ccc(Cl)cc2Cl)[C@]2(C#N)C(O)=C(Cl)C(Cl)=C(O)[C@]12C#N` showed a GI50 [1] of over 100 µM, a TGI [1] of over 100 µM and a GI50 [2] of 62 µM. For the same molecule, the TGI [2] was over 100 µM, the GI50 [3] was 16.3 µM and the TGI [3] was 80.4 µM. For the same molecule, the GI50 [4] was 39.3 µM, the TGI [4] was over 100 µM and the GI50 [5] was 44.8 µM. The TGI [5] was over 100 µM, the GI50 [6] was 42.5 µM and the TGI [6] was over 100 µM. It also gave a GI50 [7] of over 100 µM, a TGI [7] of over 100 µM and a GI50 [8] of 31.8 µM. For the same molecule, the TGI [8] was 82.9 µM, the GI50 [9] was over 100 µM and the TGI [9] was over 100 µM. For the same molecule, the GI50 [10] was 84.7 µM and the TGI [10] was over 100 µM.

For `Cc1cc(-c2ccco2)cc(C)c1/C=C/c1cncc(-c2nn[nH]n2)c1`, the GI50 [1] was over 25 µM, the TGI [1] was over 25 µM and the GI50 [2] was over 25 µM. The TGI [2] was over 25 µM, the GI50 [3] was over 25 µM and the TGI [3] was over 25 µM. It also gave a GI50 [4] of over 25 µM, a TGI [4] of over 25 µM and a GI50 [5] of over 25 µM. It also gave a TGI [5] of over 25 µM, a GI50 [6] of over 25 µM and a TGI [6] of over 25 µM. It also gave a GI50 [7] of over 25 µM, a TGI [7] of over 25 µM and a GI50 [8] of over 25 µM. For the same molecule, the TGI [8] was over 25 µM, the GI50 [9] was over 25 µM and the TGI [9] was over 25 µM. It also gave a GI50 [10] of over 25 µM and a TGI [10] of over 25 µM.

`N#Cc1cccc(C2C3=C(COC3=O)N(CCO)c3cc4c(cc32)CCC4)c1` (centres undefined) showed a GI50 [1] of 0.0411 µM, a TGI [1] of 0.303 µM and a GI50 [2] of 0.127 µM. It also gave a TGI [2] of over 50 µM, a GI50 [3] of 0.302 µM and a TGI [3] of over 50 µM. The GI50 [4] was 0.0411 µM, the TGI [4] was over 50 µM and the GI50 [5] was 0.196 µM. For the same molecule, the TGI [5] was over 50 µM, the GI50 [6] was 0.025 µM and the TGI [6] was 1.67 µM. For the same molecule, the GI50 [7] was 0.146 µM, the TGI [7] was 2.87 µM and the GI50 [8] was 0.153 µM. For the same molecule, the TGI [8] was over 50 µM, the GI50 [9] was 0.259 µM and the TGI [9] was over 50 µM. For the same molecule, the GI50 [10] was 0.436 µM and the TGI [10] was over 50 µM.

With `CN1CCOCCOCCOc2ccccc2NC(=O)c2nc(cnc2N)-c2ccc(cc2)S1(=O)=O` the GI50 [1] was 0.0241 µM, the TGI [1] was 3.93 µM and the GI50 [4] was 0.0397 µM. The TGI [4] was over 100 µM, the GI50 [5] was 5.16 µM and the TGI [5] was over 100 µM. For the same molecule, the GI50 [6] was 5.55 µM, the TGI [6] was over 100 µM and the GI50 [9] was 60.2 µM. The TGI [9] was over 100 µM, the GI50 [10] was 11.3 µM and the TGI [10] was 49.4 µM.
